From US20130289083A1, “IDO Inhibitors” (priority 2007, published 2013)
pEC50, pIC50: −log10 of the molar value. Like-named read-outs stand apart in the source and are kept apart here.

Tests used:
human IDO = human IDO (Homo sapiens, UniProt P14902); experiment: Cell based IDO/kynurenine assay in IDO-293-T-Rex cells; conditions: kynurenine production, 293T cells expressing human IDO, read-out: hIDO EC50
In short: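 293-T-REx cells stably carrying doxycycline-inducible human or murine IDO were incubated with inhibitors in induction medium for 16 h at 37° C. Medium was TCA-treated at 60° C and reacted with p-dimethylaminobenzaldehyde. Kynurenine was quantified by absorbance at 480 nm.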

murine IDO = biological target: T1, murine IDO (Mus musculus, UniProt P28776); experiment: Cell based IDO/kynurenine assay in 293-T-Rex cells expressing murine IDO; conditions: cells expressing murine IDO, read-out: mIDO EC50
T1 construct: expressed in transfected cells; host or cells: 293-T-REx cells (Invitrogen), doxycycline-inducible CMV-tet promoter
Method: Transfected cells were selected in DBZ medium (DMEM, 10% FBS, 1× Penicillin+Streptomycin, 2 mM L-glutamine, 5 μg/mL blasticidin and 25 μg/ml Zeocin) at 37° C. with a 5% CO2 in air atmosphere. Individual clones were isolated by limiting dilution cloning from these populations.
The cells incubated in Neutral medium serve as negative control of the assay. The cells incubated in Induction medium and without inhibitor serve as the positive control of the assay. The incubation is carried out for 16 h at 37° C. in a cell culture incubator. 200 μL of medium are transferred to U-bottom polypropylene 96-well plates containing 25 μL of 30% TCA, incubated 30 minutes at 60° C. and centrifuged at 3400 g for 5 minutes. 150 μL of the clear supernatant is transferred to a polystyrene 96-well plate containing 50 μL of 4% (w/v) of p-dimethylaminobenzaldehyde in acetic acid, incubated for 10 min. Kynurenine concentration is determined by measuring the absorbance at 480 nm.

[1] = biological target: purified human IDO protein (Homo sapiens, UniProt P14902); experiment: Enzymatic IDO assay (kynurenine production, absorbance 480 nm); conditions: recombinant human IDO, enzymatic activity
purified human IDO protein, sequence (P14902 whole entry P110S/E119G): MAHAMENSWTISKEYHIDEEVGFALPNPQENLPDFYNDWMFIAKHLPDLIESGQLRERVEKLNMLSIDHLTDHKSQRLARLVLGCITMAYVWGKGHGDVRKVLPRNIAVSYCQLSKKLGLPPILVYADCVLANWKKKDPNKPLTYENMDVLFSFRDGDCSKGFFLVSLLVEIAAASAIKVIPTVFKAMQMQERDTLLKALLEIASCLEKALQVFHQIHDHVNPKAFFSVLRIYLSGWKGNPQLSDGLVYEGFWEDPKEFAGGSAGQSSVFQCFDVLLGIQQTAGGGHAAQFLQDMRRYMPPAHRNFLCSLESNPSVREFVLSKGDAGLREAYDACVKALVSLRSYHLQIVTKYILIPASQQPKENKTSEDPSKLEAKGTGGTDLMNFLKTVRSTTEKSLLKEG

T1 sequence (P28776 whole entry): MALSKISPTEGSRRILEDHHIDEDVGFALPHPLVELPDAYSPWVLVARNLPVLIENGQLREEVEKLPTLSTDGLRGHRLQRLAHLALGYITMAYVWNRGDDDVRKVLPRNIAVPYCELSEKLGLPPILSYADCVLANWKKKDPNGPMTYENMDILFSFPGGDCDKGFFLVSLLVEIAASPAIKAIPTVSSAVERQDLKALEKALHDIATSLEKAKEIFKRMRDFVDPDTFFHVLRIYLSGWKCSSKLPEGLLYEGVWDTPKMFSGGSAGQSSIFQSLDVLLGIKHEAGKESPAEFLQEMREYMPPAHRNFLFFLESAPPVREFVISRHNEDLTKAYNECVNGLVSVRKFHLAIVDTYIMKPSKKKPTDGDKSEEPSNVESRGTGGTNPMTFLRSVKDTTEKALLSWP
human IDO, sequence (P14902 whole entry): as the sequence (P14902 whole entry P110S/E119G) above, with S110P, G119E counted along it

Row | Structure (SMILES) | pEC50 (human IDO; Table 15) | pEC50 (murine IDO; Table 15) | pIC50 ([1]; hIDO IC50, Table 15) | pEC50 (human IDO; Table 16) | pEC50 (murine IDO; Table 16) | pIC50 ([1]; hIDO IC50, Table 16)
1 | CNC(=O)CCC(ON)c1ccccc1 (stereo not drawn) [compound 1898, 4-(aminooxy)-N-methyl-4-phenylbutanamide] | > 5.00 | 4.00 to 5.00 | 4.00 to 5.00 | – | – | –
2 | NOCc1ccc([N+](=O)[O-])cc1 [compound 1014, O-(4-nitrobenzyl)hydroxylamine] | – | – | – | > 5.00 | 4.00 to 5.00 | 4.00 to 5.00
3 | NOCc1ccc2c(c1)OCO2 [compound 1744, O-(benzo[d][1,3]dioxol-5-ylmethyl)hydroxylamine] | > 5.00 | 4.00 to 5.00 | > 5.00 | – | – | –
4 | Cc1cccc(CON)c1 [compound 1692, O-(3-methylbenzyl)hydroxylamine] | – | – | – | > 5.00 | 4.00 to 5.00 | 4.00 to 5.00
5 | COc1ccccc1CON [compound 1678, O-(2-methoxybenzyl)hydroxylamine] | – | – | – | > 5.00 | 4.00 to 5.00 | 4.00 to 5.00
6 | NOCc1cccc(-c2ccccc2)c1 [compound 1825, O-(biphenyl-3-ylmethyl)hydroxylamine] | > 5.00 | 4.00 to 5.00 | > 5.00 | – | – | –
7 | N#Cc1cccc(CON)c1 [compound 1873, 3-(aminooxymethyl)benzonitrile] | > 5.00 | > 5.00 | > 5.00 | – | – | –
8 | NOCc1ccc(F)cc1Cl [compound 1676, O-(2-chloro-4-fluorobenzyl)hydroxylamine] | > 5.00 | 4.00 to 5.00 | > 5.00 | – | – | –
9 | NOCc1cccc(C(F)(F)F)c1 [compound 1775, O-(3-(trifluoromethyl)benzyl)hydroxylamine] | – | – | – | > 5.00 | > 5.00 | > 5.00
10 | COc1ccc(-c2cccc(CON)c2)cc1 [compound 1882, O-((4′-methoxybiphenyl-3-yl)methyl)hydroxylamine] | > 5.00 | 4.00 to 5.00 | > 5.00 | – | – | –
11 | COc1cccc(CON)c1 [compound 1682, O-(3-methoxybenzyl)hydroxylamine] | – | – | – | > 5.00 | > 5.00 | > 5.00
12 | NOCc1cc(Cl)ccc1-c1cncnc1 [compound 1923, O-(5-chloro-2-(pyrimidin-5-yl)benzyl)hydroxylamine] | > 5.00 | > 5.00 | > 5.00 | – | – | –
13 | NOCc1ccc(F)cc1 [compound 774, O-(4-fluorobenzyl)hydroxylamine] | – | – | – | > 5.00 | > 5.00 | > 5.00
14 | NOCc1cccc(Nc2ccccc2)c1 [compound 1829, 3-(aminooxymethyl)-N-phenylaniline] | > 5.00 | > 5.00 | > 5.00 | – | – | –
15 | NOCc1ccccc1-c1ccc(Cl)cc1 [compound 1879, O-((4′-chlorobiphenyl-2-yl)methyl)hydroxylamine] | > 5.00 | 4.00 to 5.00 | > 5.00 | – | – | –
16 | COC(=O)c1ccc(CON)cc1 [compound 1684, methyl 4-(aminooxymethyl)benzoate] | – | – | – | > 5.00 | 4.00 to 5.00 | > 5.00
17 | COc1ccc(CON)cc1 [compound 1815, O-(4-methoxybenzyl)hydroxylamine] | – | – | – | > 5.00 | 4.00 to 5.00 | 4.00 to 5.00
18 | NOC(CCc1ccccc1)c1ccccc1 (stereo not drawn) [compound 1924, O-(1,3-diphenylpropyl)hydroxylamine] | > 5.00 | 4.00 to 5.00 | > 5.00 | – | – | –
19 | NOCc1cc(F)cc(Cl)c1 [compound 1660, O-(3-chloro-5-fluorobenzyl)hydroxylamine] | > 5.00 | > 5.00 | > 5.00 | – | – | –
20 | NOCc1ccc2c(c1)OCCO2 [compound 1750, O-((2,3-dihydrobenzo[b][1,4]dioxin-6-yl)methyl)hydroxylamine] | > 5.00 | 4.00 to 5.00 | 4.00 to 5.00 | – | – | –
21 | NOCCOc1ccccc1 [compound 1679, O-(2-phenoxyethyl)hydroxylamine] | – | – | – | > 5.00 | > 5.00 | > 5.00
22 | CNC(=O)C(ON)c1ccccc1 (stereo not drawn) [compound 1897, 2-(aminooxy)-N-methyl-2-phenylacetamide] | > 5.00 | > 5.00 | > 5.00 | – | – | –
23 | NOCc1cccc(-c2ccc(Cl)cc2)c1 [compound 1878, O-((4′-chlorobiphenyl-3-yl)methyl)hydroxylamine] | > 5.00 | 4.00 to 5.00 | > 5.00 | – | – | –
24 | NOCc1ccc(F)c(Cl)c1 [compound 1673, O-(3-chloro-4-fluorobenzyl)hydroxylamine] | – | – | – | > 5.00 | < 3.00 | 3.00 to 4.00
25 | COC(=O)C(ON)c1ccccc1 (stereo not drawn) [compound 1886, methyl 2-(aminooxy)-2-phenylacetate] | > 5.00 | > 5.00 | > 5.00 | – | – | –
26 | NOC1CCCc2ccccc21 (stereo not drawn) [compound 1895, O-(1,2,3,4-tetrahydronaphthalen-1-yl)hydroxylamine] | > 5.00 | 4.00 to 5.00 | > 5.00 | – | – | –

Other lines, results leading:

Row | pEC50 (human IDO; Table 15) | pEC50 (murine IDO; Table 15) | pIC50 ([1]; hIDO IC50, Table 15) | pEC50 (human IDO; Table 16) | pEC50 (murine IDO; Table 16) | pIC50 ([1]; hIDO IC50, Table 16) | Structure (SMILES)
27 | > 5.00 | 4.00 to 5.00 | 4.00 to 5.00 | – | – | – | NOCc1cccc(N)c1 [compound 1824, 3-(aminooxymethyl)aniline]
28 | – | – | – | > 5.00 | 4.00 to 5.00 | > 5.00 | NOCc1cccc(I)c1 [compound 1816, O-(3-iodobenzyl)hydroxylamine]
29 | > 5.00 | > 5.00 | 4.00 to 5.00 | – | – | – | NOCc1ccccn1 [compound 1739, O-(pyridin-2-ylmethyl)hydroxylamine]
30 | – | – | – | > 5.00 | 4.00 to 5.00 | 4.00 to 5.00 | NOCc1ccc(CON)cc1 [compound 1492, O,O′-(1,4-phenylenebis(methylene))bis(hydroxylamine)]
31 | – | – | – | > 5.00 | > 5.00 | > 5.00 | NOC(c1ccccc1)c1ccccc1 [compound 1922, O-benzhydrylhydroxylamine]
32 | > 5.00 | > 5.00 | > 5.00 | – | – | – | NOCc1cc2ccccc2o1 [compound 1774, O-(benzofuran-2-ylmethyl)hydroxylamine]
33 | – | – | – | > 5.00 | 4.00 to 5.00 | > 5.00 | NOCc1ccccc1[N+](=O)[O-] [compound 811, O-(2-nitrobenzyl)hydroxylamine]
34 | – | – | – | 4.00 to 5.00 | 4.00 to 5.00 | 4.00 to 5.00 | NOCc1ccccc1CON [compound 1822, O,O′-(1,2-phenylenebis(methylene))bis(hydroxylamine)]
35 | – | – | – | 4.00 to 5.00 | > 5.00 | 4.00 to 5.00 | NOCc1cccc(CON)c1 [compound 1823, O,O′-(1,3-phenylenebis(methylene))bis(hydroxylamine)]
36 | – | – | – | > 5.00 | > 5.00 | > 5.00 | NOCc1ccc(C(F)(F)F)cc1 [compound 934, O-(4-(trifluoromethyl)benzyl)hydroxylamine]
37 | > 5.00 | 4.00 to 5.00 | > 5.00 | – | – | – | NOCc1cc(Cl)ccc1-c1ccc(C(F)(F)F)cc1 [compound 1917, O-((4-chloro-4′-(trifluoromethyl)biphenyl-2-yl)methyl)hydroxylamine]
38 | – | – | – | > 5.00 | > 5.00 | 4.00 to 5.00 | NOC1CCCCO1 (stereo not drawn) [compound 1669, O-(tetrahydro-2H-pyran-2-yl)hydroxylamine]
39 | 4.00 to 5.00 | 4.00 to 5.00 | > 5.00 | – | – | – | NOc1cccc2ccccc12 [compound 1903, O-(naphthalen-1-yl)hydroxylamine]
